In US11110182B2, “Multifunctional RNA nanoparticles and methods for treating cancer and therapeutic resistant cancer” (University of Cincinnati, priority 2016, dated 2021):
Strand notation (5' to 3'): a small letter for the sugar, then the base; units joined by * are phosphorothioate-linked, units joined directly phosphodiester-linked; [ ] holds rarer units or linkages, { } end groups; capitals alone tell only the bases. r = 2'-OH (RNA); f = 2'-fluoro

B1: pRNA-HER2apt-siScram: control pRNA nanoparticle with HER2 aptamer and scramble siRNA; strands p1 SEQ ID NO: 1, p2 SEQ ID NO: 2 (nucleic acid)
chain 1: GGAUCACGCUUCAUAUACAAAGGAUCAAUCAUGGCCAAUCUUAUUUCGCCCAUGACCUU
chain 2: GGUCAUGGGCGAAAUAAGAAAGGCCAUGUGUAUGUGGGGGGAGGACGAUGCGGUCUGCUGUGCUUGAUAUGCCCCAGACGACUCGCCCCCCACAUACUUUGUUGAUCCAAUGUAUAUGAAGCGUGAUCCUU
modifications: pRNA-HER2apt-siScram, p1; pRNA-HER2apt-siScram, p2

Legend:
[1] = test system: MED1; assay: MED1 protein level by western blotting in BT474 cells; format: cell-based, human; conditions: BT474, 48 h
Description: FIG. 3A) BT474 cells were incubated with 10 μg/mL control and pRNA-HER2apt-siMED1 nanoparticles for 48 h, and MED1 mRNA level was determined by real-time PCR. FIG. 3B) BT474 cells were incubated directly with (as indicated by -) or transfected with indicated pRNAs using lipofectamine 2000. At 48 h post treatment, MED1 protein levels were determined by western blotting. FIG. 3C) BT474 cells were treated with 10 μg/mL pRNA nanoparticles for 48 h and assayed for cell viability by MTT assay. FIG. 3D) Cells were treated as above and seeded for migration, and FIG. 3E) invasion transwell assays. Scale bar: 50 μm. FIG. 3F) After pRNA treatment for 48 h, the mRNA levels of ERα target genes TFF-1, FIG. 3G) c-Myc, and FIG. 3H) cyclin D1 in BT474 cells were determined by real-time PCR.
FIG. 7A) Six HER2-targeting RNA aptamers were selected from previous literatures, and their secondary structures were predicted using Srna-fold software. FIG. 7B) Six p2 strands containing the six different HER2 RNA aptamers were synthesized and annealed with the same p1 strand to generate six different pRNA-HER2apt-MED1 siRNA nanoparticles, respectively, followed by examination using 8% native PAGE gel electrophoresis. FIG. 7C) BT474 cells were treated with above pRNA nanoparticles for 48 h, and then MED1 protein level was determined by western blotting. […] FIG. 7D) 1 μg pRNA nanoparticles were incubated with recombinant Dicer enzyme (Genlantis) at 37° C. for 12 h, the product was separated by 8% native PAGE gel.
FIG. 9A) BT474 cells were treated with different concentrations of pRNA nanoparticles as indicated for 48 h. After that, MED1 protein level was determined by western blots, and FIG. 9B) the cell viability was determined by MTT assay.
Cell culture. Human breast cancer luciferase-overexpressing BT474 and MDA-MB-231 cells were maintained in DMEM medium (Hyclone, Thermo Scientific) supplemented with 10% fetal bovine serum (FBS, Sigma) and 1% penicillin/streptomycin (Corning) at 37° C. in a humidified atmosphere with 5% CO2.^53 • Generation of pRNA nanoparticles. The two strands of pRNA were synthesized with the DNA templates, which were amplified with overlapping primers (Sigma) by PCR methods, using a T7 promoter-controlled in vitro RNA transcription system as previously described^33 (Table 1). All the CTP and UTP used for synthesis of the pRNA nanoparticles were 2′-fluoro modified, except the control unmodified pRNA nanoparticles used in the stability assays. Following an overnight transcription at 37° C., RNA strands were purified using RNA clean and concentrator kits (ZYMO research) and examined by 8 M urea denatured 8% PAGE gel. pRNA nanoparticles were assembled by mixing the equal molar amounts of p1 and p2 strands and gradually annealing from 90° C. to 20° C. in 1×RNA annealing buffer containing 50 mM Tris-HCl (pH 7.5), 50 mM NaCl and 1 mM EDTA on a PCR machine. […] The hydrodynamic diameter and Tm value of pRNA nanoparticles were determined using dynamic light scattering and TGGE assay, respectively, as previously described.^54 The AFM imaging of the pRNA nanoparticles was performed at the University of Nebraska Medical Center imaging facility as previously reported.^55 Briefly, the pRNA nanoparticles (5 μL) were deposited on APS modified mica ^56 for a total of 2 min of incubation time. […]

[2] = test system: BT474 orthotopic xenograft tumors; assay: Anti-tumor therapy in BT474 orthotopic xenograft breast tumor mouse model; format: in vivo, athymic nude mice; conditions: single agent; for tumor lung metastasis: H&E staining of whole lung
Description: FIG. 5A) BT474 orthotopic xenograft mouse models were treated with control pRNA-HER2apt-siScram or pRNA-HER2apt-siMED1 (4 mg/Kg) once a week, in combination with vehicle or tamoxifen (TAM, 0.5 mg/mice/day) 5 days per week. Tumor sizes were measured every three days. FIG. 5B) After three weeks, mice were i.p. injected with D-luciferin, and representative in vivo images of BT474 tumors were recorded using IVIS Lumina imaging system. FIG. 5C) Average weight of the tumors excised at the end of the treatment, and FIG. 5D) the representative photos of tumors. FIG. 5E and FIG. 5F) MED1 expression in the BT474 tumors was examined using IHC staining and FIG. 5G) immunoblotting. FIG. 5H) The expression of Ki-67 in tumor tissues was analyzed using IHC staining, and FIG. 5I) the percentage of Ki-67 positive cells was counted. Scale bar: 100 μm.
FIG. 6A) Whole lung tissues were fixed, embedded, and sectioned for H&E staining, and FIG. 6B) metastasis foci in the whole lung tissues were then counted. Arrow indicates the metastasis foci. Scale bar: 100 μm. FIG. 6C) After digesting tumor tissues with trypsin and 0.1% collagenase, tumor cells were stained for CD44 and CD24, and FIG. 6D) analyzed for CD44^+CD24^−/low stem cell population using flow cytometry. FIG. 6E) Total RNA in the tumor tissues was extracted using TRIZOL reagent, and the expression of TFF-1, FIG. 6F) c-Myc, FIG. 6G) cyclin D1, and FIG. 6H) MMP-9 were determined by real-time PCR.
Migration and metastasis assay. The 8-μm-pore-size polycarbonate membrane, which separates the two chambers of a 6.5-mm Transwell (Costar), was coated with or without 1:8 DMEM-diluted Matrigel (Corning). Transwell assay was performed as previously described.^57 Briefly, BT474 cells were treated with pRNAs alone or together with 4-hydroxy-tamoxifen (4-OHT) for 48 h and starved with serum-free DMEM containing 0.2% BSA overnight. On the next day, cells were collected and 2×10^5 cells were seeded to the upper chamber of Transwell. The lower chamber was filled with 600 μL DMEM medium containing 10% FBS. After incubation at 37° C. for 24 h, cells on the membranes were fixed and stained with 0.1% crystal violet in 20% ethanol solution. Cells at top side of membranes were removed completely, and cells at the bottom side were examined with an Olympus SZX12 microscope and counted. • Mammosphere culture and breast cancer stem cell analyses. BT474 cells were treated with pRNAs for 48 h. Then, cells were suspended in DMEM/F12 medium supplemented with 1×B27 (Thermo Fisher), 20 ng/mL bFGF and 20 ng/mL EGF (R&D), and added into 24-well ultralow attachment plates. After treatment with or without 1 μM 4-OHT for 7 days, mammosphere formation was recorded using an Axiovert S100 TV inverted microscope (Zeiss). Xenograft tumor tissues were cut into small pieces and digested with trypsin and collagenase at 37° C. for 1 h, and tumor cells were collected and rinsed with pre-cold PBS. All cells were stained with FITC-conjugated anti-CD44 antibody and PE-conjugated anti-CD24 antibody (BD Pharmingen) in the dark on ice for 30 min. After resuspension with 0.5 mL PBS buffer, CD44^+/CD24^−/low cell population was analyzed by flow cytometry. • Orthotopic xenograft breast tumor mouse model, in vivo imaging and anti-tumor therapy. Six-week-old female athymic nude mice were purchased from Charles River Laboratories, and all animal procedures were performed under IACUC-approved protocols at the University of Cincinnati. Athymic nude mice were orthotopically injected with 1×10^7 BT474-luc cells mixed with matrigel into the fat pads of the forth pair of mammary glands. When the tumor sizes reached 100-150 mm^3, the mice were randomly divided into four groups (4/group) and intravenously (i.v.) injected with pRNAs (4 mg/Kg) once a week for three weeks. For tamoxifen treatments, 0.5 mg tamoxifen (Sigma) dissolved in sesame oil was intraperitoneally (i.p.) injected into mice 5 days a week for three weeks. […]

Molecule	efficiency of MED1 knockdown among six HER2 RNA aptamers in pRNA nanoparticles [1]	tumor lung metastasis [2]	tumor growth ([2]; pRNA 4 mg/Kg i.v. once a week or tamoxifen 0.5 mg i.p. 5 days a week, three weeks)
B3 aptamer: HER2-targeting RNA aptamer B3 (SEQ ID NO: 9), tested within pRNA-HER2apt-MED1 siRNA nanoparticles (rGrGrGrArGrGrAfCrGrAfUrGfCrGrGfUfCfUrGfCfUrGfUrGfCfUfUrGrAfUrAfUrGfCfCfCfCrArGrAfCrGrAfCfUfCrGfCfCfC; part of pRNA three-way junction nanoparticle with siRNA)	highest efficiency		
CC/C(=C(\c1ccccc1)c1ccc(OCCN(C)C)cc1)c1ccccc1 [tamoxifen, reference compound]		multiple tumor lung metastasis foci	only weakly inhibited
B1		multiple tumor lung metastasis foci	
